# System: α-synuclein aggregate
# Assay: Test 2: suppressing the accumulation of α-synuclein aggregate in neurospheroid from PLA2G6 mutant human iPS cells
# Format: cell-based
# Details: compound added day 4, measured day 9, DMSO = 100%; for activity at 0.1 µM: 100 nM, read-out: Amount of aggregate (%) 100 nM; for activity at 1 µM: 1000 nM, read-out: Amount of aggregate (%) 1000 nM
# Procedure: Test 2: Evaluation of Suppressing the Accumulation of α-Synuclein Aggregate with Neurospheroid Prepared from Human iPS Cells with a Mutation in PLA2G6 Gene
# (1) Induction of Differentiation from Human iPS Cell to Neural Cell
# Neural stem cells were induced from PLA2G6 gene mutant iPS cells with PSC Neuronal Induction Medium (Thermo Fisher Scientific Inc., cat #A1647801). Neurospheroid was prepared from the induced neural stem cells by three-dimensional culture system, and preserved with BrainPhys Neuronal Medium (STEMCELL Technologies, cat #ST-05793) comprising NeuroCult SM1 Neuronal Supplement, N2 Supplement-A, 20 ng/mL BDNF, 20 ng/mL GDNF, 1 mM dibutyryl cAMP, and 200 nM ascorbic acid. Half of the culture medium was replaced on day 2 and day 4 after the induction of differentiation.
# The test compound was diluted with the culture medium so as to be twice the final concentration, and an equal volume of the twice-concentrated solution was added to each well when half of the culture medium was replaced on day 4 after induction of differentiation.
# (2) Evaluation of the Amount of α-Synuclein Aggregate
# From the neurospheroid 9 days after the induction of differentiation, proteins were extracted with a TBS solution containing 1% TritionX-100, and the extracted proteins were subjected to a protein analysis with Simple Western system (Protein Simple, Inc., cat #SM-W008) using an α-synuclein antibody (Thermo Fisher Scientific Inc., cat #AHB0261) to measure the amount of the α-synuclein aggregate.
# Assuming that the amount of the aggregate in the neurospheroid added with a DMSO solution is 100%, the amount of the aggregate in the neurospheroid added with each test compound was evaluated.
Structure (SMILES),activity at 0.1 µM,activity at 1 µM
CCn1ccc(OC)c/c1=N\C(=O)C1(C)CN(C)C1 [Example 52],68%,60%
CCOc1ccn(C)/c(=N/C(=O)C2(CC)COC2)c1 [Example 13],33%,13%
Cn1cccc/c1=N\C(=O)C1CCNC1 (centres unmarked) [Example 67],62%,72%
"Cn1cccc/c1=N\C(=O)C1(C)CN(CC(F)(F)F)C1 [Example 73, 3-Methyl-N-[(2E)-1-methylpyridin-2(1H)-ylidene]-1-(2,2,2-trifluoroethyl)azetidine-3-carboxamide]",79%,76%
CCOc1ccn(C)/c(=N/C(=O)C2(C)COC2)c1 [Example 12],19%,10%
Cn1ccc(F)c/c1=N\C(=O)C1(C)COC1 [Example 16],73%,62%
Cc1c/c(=N\C(=O)C2(C)COC2)n(C)cc1C [Example 34],18%,85%
Cc1cc/c(=N\C(=O)C2(C)CNC2)n(C)c1 [Example 47],25%,40%
Cn1ccc(OC(F)(F)F)c/c1=N\C(=O)C1(C)COC1 [Example 14],21%,7%
"Cn1cccc/c1=N\C(=O)C1(C)CN(C2CC2)C1 [Example 72, 1-Cyclopropyl-3-methyl-N-[(2E)-1-methylpyridin-2(1H)-ylidene]azetidine-3-carboxamide]",64%,75%
CCC1(C(=O)/N=c2\cc(C(F)(F)F)ccn2C)COC1 [Example 7],40%,66%
CCC1(C(=O)/N=c2\ccc(C)cn2C)COC1 [Example 25],73%,21%
Cc1c/c(=N\C(=O)C2(C)CN(C)C2)n(C)cc1Br [Example 59],6%,4%
CCC1(C(=O)/N=c2\ccc(C(F)(F)F)cn2C)COC1 [Example 27],19%,28%
CN1CC(C)(C(=O)/N=c2\ccc(F)cn2C)C1 [Example 56],30%,68%
CCC1(C(=O)/N=c2\cc(OC(F)(F)F)ccn2C)COC1 [Example 15],2%,120%
CCC1(C(=O)/N=c2\cc(C)c(F)cn2C)COC1 [Example 37],29%,53%
"Cn1cccc/c1=N\C(=O)C1(C)CNC1 [Example 43, 3-Methyl-N-[(2E)-1-methylpyridin-2(1H)-ylidene]azetidine-3-carboxamide]",49%,57%
COc1cc/c(=N\C(=O)C2(C)COC2)n(C)c1 [Example 28],47%,98%
Cn1cc(F)cc/c1=N\C(=O)C1(C)CNC1 [Example 46],85%,49%
Cn1cccc/c1=N\C(=O)C1CCN(CC(F)(F)F)CC1 [Example 42],82%,96%
"CN1CC(C)(C(=O)/N=c2\ccccn2C)C1 [Example 49, 1,3-Dimethyl-N-[(2E)-1-methylpyridin-2(1H)-ylidene]azetidine-3-carboxamide]",78%,74%

Structure (SMILES),activity at 0.1 µM,activity at 1 µM
Cn1cccc/c1=N\C(=O)C1CCCO1 (centres unmarked) [Example 62],76%,79%
Cc1c/c(=N\C(=O)C2(C)COC2)n(C)cc1Br [Example 38],21%,33%
"Cn1cccc/c1=N\C(=O)N1CCOC(C)(C)C1 [Example 75, 2,2-Dimethyl-N-[(2E)-1-methylpyridin-2(1H)-ylidene]morpholine-4-carboxamide]",49%,63%
CCC1(C(=O)/N=c2\cc(C)c(C)cn2C)COC1 [Example 35],95%,97%
COc1ccn(C)/c(=N/C(=O)C2(C)CNC2)c1 [Example 44],23%,10%
CN1CCC(C(=O)/N=c2\ccccn2C)CC1 [Example 65],86%,67%
CCn1ccc(F)c/c1=N\C(=O)C1(C)COC1 [Example 18],30%,26%
CCC1(C(=O)/N=c2\cc(C)ccn2C)COC1 [Example 5],113%,91%
CCC1(C(=O)/N=c2\ccc(Cl)cn2C)COC1 [Example 33],33%,50%
Cc1c/c(=N\C(=O)C2(C)CN(C)C2)n(C)cc1F [Example 58],36%,17%
CCn1ccc(OC)c/c1=N\C(=O)C1(C)COC1 [Example 10],25%,8%
Cn1cc(C(F)(F)F)cc/c1=N\C(=O)C1(C)CNC1 [Example 48],63%,68%
Cn1cccc/c1=N\C(=O)N1C[C@H]2CC[C@@H](C1)O2 [Example 76],44%,67%
Cn1cc(F)cc/c1=N\C(=O)C1(C)COC1 [Example 30],50%,59%
CCC1(C(=O)/N=c2\cc(Cl)ccn2C)COC1 [Example 21],37%,7%
CCC1(C(=O)/N=c2\cc(C)c(Br)cn2C)COC1 [Example 39],15%,94%
"Cn1cccc/c1=N\C(=O)N1CCOCC1 [Example 61, N-[(2E)-1-methylpyridin-2(1H)-ylidene]morpholine-4-carboxamide]",73%,53%
CCn1ccc(OC)c/c1=N\C(=O)C1(CC)COC1 [Example 11],65%,7%
CCn1ccc(OC)c/c1=N\C(=O)C1(C)CNC1 [Example 45],25%,35%
COc1ccn(C)/c(=N/C(=O)C2(C)COC2)c1 [Example 8],58%,61%
Cn1cc(C(F)(F)F)cc/c1=N\C(=O)C1(C)COC1 [Example 26],23%,38%
Cn1ccc(C(F)(F)F)c/c1=N\C(=O)C1(C)COC1 [Example 6],38%,26%

Structure (SMILES),activity at 0.1 µM,activity at 1 µM
Cn1cccc/c1=N\C(=O)C1CNC1 [Example 66],61%,66%
Cc1c/c(=N\C(=O)C2(C)CN(C)C2)n(C)cc1C [Example 57],13%,31%
CCOc1ccn(C)/c(=N/C(=O)C2(C)CN(C)C2)c1 [Example 53],16%,92%
Cn1ccc(Cl)c/c1=N\C(=O)C1(C)COC1 [Example 20],16%,49%
CCC1(C(=O)/N=c2\cc(OC)c(Cl)cn2C)COC1 [Example 41],18%,45%
Cc1c/c(=N\C(=O)C2(C)COC2)n(C)cc1F [Example 36],13%,16%
CN1CC(C)(C(=O)/N=c2\cc(OC(F)(F)F)ccn2C)C1 [Example 54],18%,13%
"Cn1cccc/c1=N\C(=O)N1CCOCC1(C)C [Example 74, 3,3-Dimethyl-N-[(2E)-1-methylpyridin-2(1H)-ylidene]morpholine-4-carboxamide]",30%,64%
CCC1(C(=O)/N=c2\cc(F)ccn2C)COC1 [Example 17],77%,7%
CCn1ccc(Cl)c/c1=N\C(=O)C1(C)COC1 [Example 22],28%,48%
Cn1cc(Cl)cc/c1=N\C(=O)C1(C)COC1 [Example 32],33%,31%
Cc1cc/c(=N\C(=O)C2(C)COC2)n(C)c1 [Example 24],121%,58%
CN1CC(C(=O)/N=c2\ccccn2C)C1 [Example 69],89%,41%
Cn1cccc/c1=N\C(=O)C1CCOC(C)(C)C1 (centres unmarked) [Example 64],69%,72%
CCC1(C(=O)/N=c2\ccc(OC)cn2C)COC1 [Example 29],89%,33%
CN1CCC(C(=O)/N=c2\ccccn2C)C1 (centres unmarked) [Example 70],77%,31%
CCn1ccc(Cl)c/c1=N\C(=O)C1(CC)COC1 [Example 23],56%,11%
Cc1cc/c(=N\C(=O)C2(C)CN(C)C2)n(C)c1 [Example 55],92%,74%
Cn1cccc/c1=N\C(=O)C1CCNCC1 [Example 68],80%,31%
CCn1ccc(F)c/c1=N\C(=O)C1(CC)COC1 [Example 19],112%,19%
